Experimental data as given in PubChem BioAssay AID2060883 (Molecular Pharmacology Branch, DTP, NCI, 2025).

System: 843782-103-R-J1-PDC complex spheroid viability
Assay: Anticancer human tumor 843782-103-R-J1-PDC patient-derived lung adenocarcinoma cell line growth inhibition [RAS]
Conditions: for IC50: curve of first compound; for viability, T/C: stronger effect = lower value
In short: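 Multi-cell-type spheroids: tumor cells plus HUVEC endothelial cells and mesenchymal stem cells. RAS-pathway inhibitors were combined with targeted agents, each dosed in half-log steps down from clinical Cmax, or from 10 microM when Cmax was unknown.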

[1] = second compound 0.0316 µM, first compound 0.0316 µM
[2] = second compound 0.0316 µM, first compound 0.1 µM
[3] = second compound 0.0316 µM, first compound 0.316 µM
[4] = second compound 0.0316 µM, first compound 1 µM
[5] = second compound 0.1 µM, first compound 0.0316 µM
[6] = second compound 0.1 µM, first compound 0.1 µM
[7] = second compound 0.1 µM, first compound 0.316 µM
[8] = second compound 0.1 µM, first compound 1 µM
[9] = second compound 0.316 µM, first compound 0.0316 µM
[10] = second compound 0.316 µM, first compound 0.1 µM
[11] = second compound 0.316 µM, first compound 0.316 µM
[12] = second compound 0.316 µM, first compound 1 µM
[13] = second compound 1 µM, first compound 0.0316 µM
[14] = second compound 1 µM, first compound 0.1 µM
[15] = second compound 1 µM, first compound 0.316 µM
[16] = second compound 1 µM, first compound 1 µM
[17] = second compound 3.16 µM, first compound 0.0316 µM
[18] = second compound 3.16 µM, first compound 0.1 µM
[19] = second compound 3.16 µM, first compound 0.316 µM
[20] = second compound 3.16 µM, first compound 1 µM
[21] = second compound 10 µM, first compound 0.0316 µM
[22] = second compound 10 µM, first compound 0.1 µM
[23] = second compound 10 µM, first compound 0.316 µM
[24] = second compound 10 µM, first compound 1 µM
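Note: viability read after seven days of compound exposure.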

In the case of `C=CC(=O)N1CCN(c2nc(OCC3CCCN3C)nc3c(F)c(-c4nc(N)cc(C)c4C(F)(F)F)c(Cl)cc23)C(C)C1` (stereo unspecified) + C#Cc1c(F)ccc2cc(O)cc(-c3ncc4c(N5CC6CCC(C5)N6)nc(OCC56CCCN5CC(F)C6)nc4c3F)c12, the IC50 (second compound 0.0316 µM) is reported as > 1000 nM, the IC50 (second compound 0.1 µM) is reported as > 1000 nM and the IC50 (second compound 0.316 µM) is reported as > 1000 nM. The IC50 (second compound 1 µM) was > 1000 nM, the IC50 (second compound 3.16 µM) was > 1000 nM and the IC50 (second compound 10 µM) was < 3.16 nM. The viability, T/C (second compound 0.0316 µM, first compound 0.00316 µM) was 89.9%, the viability, T/C (second compound 0.0316 µM, first compound 0.01 µM) was 81.1% and the viability, T/C [1] was 83.3%. The viability, T/C [2] was 76.3%, the viability, T/C [3] was 88.4% and the viability, T/C [4] was 79.5%. The viability, T/C (second compound 0.1 µM, first compound 0.00316 µM) was 89.7%, the viability, T/C (second compound 0.1 µM, first compound 0.01 µM) was 83.1% and the viability, T/C [5] was 74.4%. The viability, T/C [6] was 78.1%, the viability, T/C [7] was 69.8% and the viability, T/C [8] was 80.6%. For the same compound, the viability, T/C (second compound 0.316 µM, first compound 0.00316 µM) was 86.5%, the viability, T/C (second compound 0.316 µM, first compound 0.01 µM) was 68.1% and the viability, T/C [9] was 74.8%. It also gave a viability, T/C [10] of 78.8%, a viability, T/C [11] of 77.4% and a viability, T/C [12] of 76.1%. The viability, T/C (second compound 1 µM, first compound 0.00316 µM) was 81%, the viability, T/C (second compound 1 µM, first compound 0.01 µM) was 74.1% and the viability, T/C [13] was 79.3%. The viability, T/C [14] was 69.3%, the viability, T/C [15] was 65.8% and the viability, T/C [16] was 68.5%. It also gave a viability, T/C (second compound 3.16 µM, first compound 0.00316 µM) of 62.2%, a viability, T/C (second compound 3.16 µM, first compound 0.01 µM) of 67.2% and a viability, T/C [17] of 70%. It also gave a viability, T/C [18] of 64.3%, a viability, T/C [19] of 60.1% and a viability, T/C [20] of 64.5%. The viability, T/C (second compound 10 µM, first compound 0.00316 µM) was 39.6%, the viability, T/C (second compound 10 µM, first compound 0.01 µM) was 57% and the viability, T/C [21] was 44.8%. For the same compound, the viability, T/C [22] was 49.7%, the viability, T/C [23] was 40.5% and the viability, T/C [24] was 40.5%.

`CC1(C)CCC(Nc2ncc(C(F)(F)F)c(-c3c[nH]c4c(P(C)(C)=O)c(C#N)ccc34)n2)CN1` (stereo unspecified) + C#Cc1c(F)ccc2cc(O)cc(-c3ncc4c(N5CC6CCC(C5)N6)nc(OCC56CCCN5CC(F)C6)nc4c3F)c12 was tested, and the IC50 (second compound 0.0316 µM) was 22.6 nM, the IC50 (second compound 0.1 µM) was 17.4 nM and the IC50 (second compound 0.316 µM) was 20.1 nM. It also gave an IC50 (second compound 1 µM) of 7.9 nM, an IC50 (second compound 3.16 µM) of 5.68 nM and an IC50 (second compound 10 µM) of 0.949 nM. For the same compound, the viability, T/C (second compound 0.0316 µM, first compound 0.000949 µM) was 102%, the viability, T/C (second compound 0.0316 µM, first compound 0.003 µM) was 93.6% and the viability, T/C (second compound 0.0316 µM, first compound 0.00949 µM) was 72.1%. The viability, T/C (second compound 0.0316 µM, first compound 0.03 µM) was 44.9%, the viability, T/C (second compound 0.0316 µM, first compound 0.0949 µM) was 21.1% and the viability, T/C (second compound 0.0316 µM, first compound 0.3 µM) was 22.7%. It also gave a viability, T/C (second compound 0.1 µM, first compound 0.000949 µM) of 103%, a viability, T/C (second compound 0.1 µM, first compound 0.003 µM) of 88.1% and a viability, T/C (second compound 0.1 µM, first compound 0.00949 µM) of 58.6%. For the same compound, the viability, T/C (second compound 0.1 µM, first compound 0.03 µM) was 42.5%, the viability, T/C (second compound 0.1 µM, first compound 0.0949 µM) was 26.8% and the viability, T/C (second compound 0.1 µM, first compound 0.3 µM) was 23.1%. The viability, T/C (second compound 0.316 µM, first compound 0.000949 µM) was 101%, the viability, T/C (second compound 0.316 µM, first compound 0.003 µM) was 76.2% and the viability, T/C (second compound 0.316 µM, first compound 0.00949 µM) was 58.1%. For the same compound, the viability, T/C (second compound 0.316 µM, first compound 0.03 µM) was 51.5%, the viability, T/C (second compound 0.316 µM, first compound 0.0949 µM) was 25.6% and the viability, T/C (second compound 0.316 µM, first compound 0.3 µM) was 24.6%. For the same compound, the viability, T/C (second compound 1 µM, first compound 0.000949 µM) was 88.5%, the viability, T/C (second compound 1 µM, first compound 0.003 µM) was 69% and the viability, T/C (second compound 1 µM, first compound 0.00949 µM) was 46.2%. For the same compound, the viability, T/C (second compound 1 µM, first compound 0.03 µM) was 30.9%, the viability, T/C (second compound 1 µM, first compound 0.0949 µM) was 26.4% and the viability, T/C (second compound 1 µM, first compound 0.3 µM) was 20.5%. It also gave a viability, T/C (second compound 3.16 µM, first compound 0.000949 µM) of 61%, a viability, T/C (second compound 3.16 µM, first compound 0.003 µM) of 57.4% and a viability, T/C (second compound 3.16 µM, first compound 0.00949 µM) of 44%. It also gave a viability, T/C (second compound 3.16 µM, first compound 0.03 µM) of 29.2%, a viability, T/C (second compound 3.16 µM, first compound 0.0949 µM) of 24.9% and a viability, T/C (second compound 3.16 µM, first compound 0.3 µM) of 24.6%. The viability, T/C (second compound 10 µM, first compound 0.000949 µM) was 46.6%, the viability, T/C (second compound 10 µM, first compound 0.003 µM) was 44.9% and the viability, T/C (second compound 10 µM, first compound 0.00949 µM) was 37.4%. It also gave a viability, T/C (second compound 10 µM, first compound 0.03 µM) of 59.2%, a viability, T/C (second compound 10 µM, first compound 0.0949 µM) of 26% and a viability, T/C (second compound 10 µM, first compound 0.3 µM) of 21.8%.

In the case of `CC(C)NCC(C(=O)N1CCN(c2ncnc3c2C(C)CC3O)CC1)c1ccc(Cl)cc1` (stereo unspecified) + C#Cc1c(F)ccc2cc(O)cc(-c3ncc4c(N5CC6CCC(C5)N6)nc(OCC56CCCN5CC(F)C6)nc4c3F)c12, the IC50 (second compound 0.0316 µM) is reported as 1870 nM, the IC50 (second compound 0.1 µM) is reported as 1720 nM and the IC50 (second compound 0.316 µM) is reported as 1560 nM. For the same compound, the IC50 (second compound 1 µM) was 930 nM, the IC50 (second compound 3.16 µM) was 390 nM and the IC50 (second compound 10 µM) was 160 nM. The viability, T/C [1] was 99.3%, the viability, T/C [2] was 99.2% and the viability, T/C [3] was 90.4%. For the same compound, the viability, T/C [4] was 71.6%, the viability, T/C (second compound 0.0316 µM, first compound 3.16 µM) was 32.1% and the viability, T/C (second compound 0.0316 µM, first compound 10 µM) was 13.8%. For the same compound, the viability, T/C [5] was 106%, the viability, T/C [6] was 99.1% and the viability, T/C [7] was 94.3%. The viability, T/C [8] was 69.9%, the viability, T/C (second compound 0.1 µM, first compound 3.16 µM) was 28% and the viability, T/C (second compound 0.1 µM, first compound 10 µM) was 13.5%. The viability, T/C [9] was 103%, the viability, T/C [10] was 95.1% and the viability, T/C [11] was 86.9%. For the same compound, the viability, T/C [12] was 69.2%, the viability, T/C (second compound 0.316 µM, first compound 3.16 µM) was 21.4% and the viability, T/C (second compound 0.316 µM, first compound 10 µM) was 13.7%. It also gave a viability, T/C [13] of 100%, a viability, T/C [14] of 94.6% and a viability, T/C [15] of 79.2%. It also gave a viability, T/C [16] of 48%, a viability, T/C (second compound 1 µM, first compound 3.16 µM) of 21.2% and a viability, T/C (second compound 1 µM, first compound 10 µM) of 10.3%. The viability, T/C [17] was 84.6%, the viability, T/C [18] was 75% and the viability, T/C [19] was 53.3%. For the same compound, the viability, T/C [20] was 31.8%, the viability, T/C (second compound 3.16 µM, first compound 3.16 µM) was 13% and the viability, T/C (second compound 3.16 µM, first compound 10 µM) was 7.27%. It also gave a viability, T/C [21] of 62.8%, a viability, T/C [22] of 55% and a viability, T/C [23] of 42.3%. For the same compound, the viability, T/C [24] was 20%, the viability, T/C (second compound 10 µM, first compound 3.16 µM) was 10.1% and the viability, T/C (second compound 10 µM, first compound 10 µM) was 4.52%.
